Laboratory results from patent publication US20070099826A1, “Treatment of diseases associated with the egr-1 enhancer element” (priority 2003, published 2007).

Tests used:
APO A1 promoter [1] = assay: APO A1 promoter activity, Hep G2 cells permanently transfected with pA1.474-Luc; assay type: cell-based, human; conditions: 10 μM resveratrol
Protocol: HepG2 cells were also permanently transfected with 474-luciferase using a co-transfection method. Hep G2 cells are grown in MEM (Gibco) and 10% fetal calf serum (Gibco) and then co-transfected with 474-Luc along with another plasmid that carries neomycin resistance.
(§1) Cells were transfected with Luciferase plasmid of interest (see above) and left to recover overnight in serum poor media. These cells or those that were permanently transfected with the luciferase promoter were then treated with varying concentrations of resveratrol for stated periods of time. As above, RSV-beta-Gal was co-transfected as a control to normalize for DNA uptake. Cells were then harvested and suspended in reporter lysis buffer (Promega). A 10 μl aliquot of this lysate was used for determination of luciferase activity, and 5 μl were used for total protein determination (Bradford Assay, Bio-Rad reagent). Luciferase activity was then determined and expressed relative to the protein concentration of that sample.
To assay for promoter activity in Hep G2 cells, the reporter construct pA1.474-Luc was inserted into the human hepatoma, Hep G2, cells along with pRSV-β-galactosidase as a monitor for transfection efficiency using conventional molecular biology techniques as later described. The transfected cells were exposed to varying concentrations of resveratrol from 0 to 100 μM for 16 hours. […]

APO A1 protein [2] = assay: Western blot of APO A1 protein in spent media from Hep G2 cells; assay type: cell-based, human; conditions: 5 or 10 p,M, 36 hours
Protocol: (§2) Media or cells were harvested from untreated and treated HepG2/CaCo2 culture dishes at various time points and stored at −80° C. when required. For experiments in which media was collected for western blotting, cells from these dishes were trypsinized (Gibco) and a 100 μl sample of cells was used to determine the percentage of dead cells by counting live/dead cell ratios using […] staining. The remaining cells were then assessed for total DNA content using method described by Maniatis, (Cloning Manual). DNA content per dish was then utilized along with ratio of live/dead cells to normalize the amount of media to be separated by polyacrylamide gel electrophoresis. For experiments requiring western blot of whole cell lysates, cells were harvested and lysed using reporter lysis reagent (Promega) and cell debris was spun down at 13,000 rpm for 5 minutes. An aliquot of the supernatant was then used to determine amount of protein per samples were using Bradford assay (Rio-Rad reagent). Equal amounts of protein from all samples were then separated by polyacrylamide gel electrophoresis as was done with media. […]
To measure whether resveratrol stimulation of the APO A1 promoter in the Hep G2 cells also increases the abundance of the protein, APO A1 secreted into the media was assessed following treatment with the compound. […]

APO A1 protein [3] = assay: Western blot of APO A1 protein in spent media from CaCo2 cells; assay type: cell-based, human; conditions: 5 or 10 p,M, 36 hours
Protocol: as §2, with “minutes.” for “minutes. An aliquot of the supernatant was then used to determine amount of protein per samples were using Bradford assay (Rio-Rad reagent). Equal amounts of protein from all samples were then separated by polyacrylamide gel electrophoresis as was done with media.”
This to experiment sought to measure whether resveratrol stimulation of transcriptional activity of the promoter in the CaCo2 cells increased the abundance of the APO A1 protein, ultimately responsible for the antiatherogenic activity of the gene. […] Longer exposure of the cells to resveratrol was utilized to allow adequate time for the APO A1 protein to be secreted into the media from the CaCo2 cells, and detected. […]

[4] = tested on: human APO A1 promoter from −474 to −7; assay: APO A1 promoter activity, pA1.474-Luc reporter transiently transfected in CaCo2 cells; assay type: cell-based
Protocol: (§3) The plasmids created for the studies contained the human APO A1 promoter from −474, −375, −325, −235, −190 to −170 fused to the firefly luciferase gene in the vector, pGL3 (Promega). Insertion of the promoter DNA was verified by nucleotide sequence analysis. Plasmid DNA was prepared from bacteria containing the desired clone and isolated using Qiagen kits according to manufacturer's instructions and used in the tansfection studies or to create a stable cell line.
(§4) The CaCo2 or HepG2 cells were grown in the defined media and, for promoter assay studies, transfected with the reporter construct of interest. Cells were then left in serum-free media for 8-12 hours after which time resveratrol was added to media to give a final concentration of the agent as stated in the figure legends. The cells were exposed to the agent for varying periods of time, harvested and then the parameter of interest, either APO A1 protein or promoter activity, was assayed.
(§5) For transient transfections cells were seeded onto six well plates and grown to 30-40% confluence, The cells were then transfected using 5 μl of Superfect (Qiagen) and up to one microgram of the plasmid of interest in 100 μl of serum and antibiotic free MEM. The solution was incubated for 10 minutes at room temperature. Media was then removed from the cells to be transfected and 1 ml of media was added to the DNA-Superfect mixture before being applied to the cells. The cells were then exposed to the DNA for 2 hours at 37° C./5% CO2 and then the media containing DNA was removed and replaced with serum free MEM media allowed to grow over night prior to harvest.
Cells were transfected with Luciferase plasmid of interest (see above) and left to recover overnight in serum poor media. […] Luciferase activity was then determined and expressed relative to the protein concentration of that sample.
Next the CaCo2 cells were exposed to varying concentrations of resveratrol from 0 to 15 μM. […] At the end of the treatment, the cells were harvested and the Luc-activity measured. […]

APO A1 promoter [5] = assay: APO A1 promoter activity, pA1.474-Luc reporter transiently transfected in Hep G2 cells; assay type: cell-based, human
Protocol: as §3, §4, §5
Cells were transfected with Luciferase plasmid of interest (see above) and left to recover overnight in serum poor media. These cells or those that were permanently transfected with the luciferase promoter were then treated with varying concentrations of resveratrol for stated periods of time. As above, RSV-beta-Gal was co-transfected as a control to normalize for DNA uptake. […] Luciferase activity was then determined and expressed relative to the protein concentration of that sample. […]

APO A1 promoter [6] = assay: APO A1 promoter deletion constructs fused to Luc, transient transfection in CaCo2 cells; assay type: cell-based, human; conditions: 5 μM, minimum of 16 hours
Protocol: as §3, §5, §1
In order to identify the potential motif(s), separate constructs containing progressively smaller amounts of APO A1 DNA were fused to the Luc gene. The activity of each construct was tested by transient transfection assay in CaCo2 cells and than treated with 5 μM resveratrol for a minimum of 16 hours. […] The number at the bottom of each set of columns denotes the 5′ location of the fragment and the 3′ end is common to all deletional clones at −7. […] In contrast, further deletion with the remaining −170 to −7 fragment of the promoted abolished the resveratrol induction of the promoter. We discovered the resveratrol responsive motif in the APO A1 DNA must span nucleotides −190 to −170.

APO A1 protein [7] = assay: Immunofluorescence staining of APO A1 protein in Hep G2 cells; assay type: cell-based, human; conditions: 5 or 10 μM
Protocol: (§6) Human hepatoblastoma cells (HepG2) and intestinal cells (CaCo2) were obtained from the American Type Culture Collection (Rockville, Md.). Cells were grown in Minimum Essential Medium (MEM) (Gibco) supplemented with 2 mM glutamine, MEM vitamin solution and 10% fetal bovine serum (FBS) for HepG2 and 20% FBS (Gibco) for CaCo2 cells. All cells were incubated in a 95% air/5% CO2 atmosphere.
The CaCo2 or HepG2 cells were grown in the defined media and, for promoter assay studies, transfected with the reporter construct of interest. Cells were then left in serum-free media for 8-12 hours after which time resveratrol was added to media to give a final concentration of the agent as stated in the figure legends. […]
(§7) HepG2 and CaCo2 cells were grown on cover slips. […] The FITC-labeled ApoA1 peptide in cells was visualized using a Zeiss fluorescence microscope (Zeiss, Dusseldorf, Germany) with FITC excitation and emission wavelengths of 488 and 520 nm. […]
Since the APO A1 gene is expressed in both liver and small intestine, the following studies examine the ability of resveratrol to affect expression of the gene in liver cells. […] Hep G2 cells were viewed under phase contrast or fluorescence microscopy following treatment with or without resveratrol and immunostaining for their content of APO A1 protein.

APO A1 protein [8] = assay: Immunofluorescence staining of APO A1 protein in CaCo2 cells; assay type: cell-based, human; conditions: 5 and 10 μM, 36 hours of treatment
Protocol: as §6, §4
as §7, with “slips. Cover slips on which CaCo2 cells were grown were also coated with fibronectin (Calbiochem).” for “slips.”

Oc1ccc(/C=C/c2cc(O)cc(O)c2)cc1 [resveratrol, trans-3,5,4′-trihydroxystilbene]
maximal increase of Luc-activity (APO A1 promoter [1]): 4 fold | abundance of APO A1 protein in spent media (western blot) (APO A1 protein [2]): marked increase | abundance of APO A1 protein in spent media (western blot) (APO A1 protein [3]): marked increase | optimal time point for stimulatory effect on APO A1 promoter ([4]; 5 μM, time points 4 to 24 hours): around 16 hours | maximal stimulation of APO A1 promoter activity (Luc-activity) ([4]; 16 hours, resveratrol 5 to 7.5 μM): 2.5 fold | resveratrol concentration causing maximal stimulation of APO A1 promoter activity ([4]; 16 hours, tested 0 to 15 μM): 5 to 7.5 µM | concentration at which resveratrol becomes inhibitory on APO A1 promoter activity (APO A1 promoter [5]; 16 hours): ≥ 50 µM | increase in Luc-activity (APO A1 promoter) (APO A1 promoter [5]; 16 hours, 5 to 10 μM resveratrol): 3 fold | decrease in Luc-activity (APO A1 promoter [5]; 16 hours, 15, 25, 50, 75 or 100 μM): 50% | increase in promoter activity, −190 to −7 fragment (APO A1 promoter [6]): 2.5 fold | increase in promoter activity, −235 to −7 fragment (APO A1 promoter [6]): 2.5 fold | induction of promoter activity, full-length (−474 to −7) promoter (APO A1 promoter [6]): 2.5 fold | induction of promoter, −170 to −7 fragment (APO A1 promoter [6]): abolished | fluorescence for APO A1 signal (immunostaining) (APO A1 protein [7]): increase in fluorescence | abundance of APO A1 signal (immunohistochemical staining) (APO A1 protein [8]): increase in the abundance of APO A1 signal
